The values below come from patent US10961245B2, “Substituted heterocycle fused gamma-carbolines for treatment of central nervous system disorders” (INTRA-CELLULAR THERAPIES, INC., priority 2016, dated 2021).

For test [1], the target named is T1, μ(MOP) (h) receptor (Homo sapiens, UniProt P35372).
T1 construct: expressed in transfected cells; host or cells: CHO cells
As to the kind of experiment: Cellular functional assay, μ (MOP) (h) antagonist effect (cAMP, HTRF). The format is cell-based. On the procedure: Cellular and Nuclear Receptor Functional Assays are performed on the compounds of Formula II-B and according to the procedure of Wang, J. B. et al. (1994), FEBS Lett., 338:217-222. The compounds are tested at several concentrations to determine their IC50 or EC50.
Cellular agonist effects are calculated as percent of control response to a known reference agonist for each target and cellular antagonist effect is calculated as a percent inhibition of control reference agonist response for each target.
The following assay is performed to determine the effect of the Compound of Formula on the μ(MOP) (h) receptor: […]
The results are expressed as a percent of control agonist response: […]
and as a percent inhibition of control agonist response:
The EC50 values (concentration producing a half-maximal response) and IC50 values (concentration causing a half-maximal inhibition of the control agonist response) are determined by non-linear regression analysis of the concentration-response curves generated with mean replicate values using Hill equation curve fitting:
[formula] where Y=response, A=left asymptote of the curve, D=right asymptote of the curve, C=compound concentration, and C50=EC50 or IC50, and nH=slope factor. The analysis is performed using software developed in-house and validated by comparison with data generated by the commercial software SigmaPlot® 4.0 for Windows® (© 1997 by SPSS Inc.).
For the antagonists, the apparent dissociation constants (KB) are calculated using the modified Cheng Prusoff equation:
[formula] where A=concentration of reference agonist in the assay, and EC50A=EC50 value of the reference agonist.

Test [2] addresses SERT (Homo sapiens, UniProt P31645). In words: Receptor binding SERT. To be noted: read-out: Ki (nM) or maximum inhibition. On the procedure: (§1) Receptor binding is determined for the Compounds of Formulas II-A and II-B using the tosylate salt of the compound of Formula A as a control. The following literature procedures are used, each of which reference is incorporated herein by reference in their entireties:
SERT: Park, Y. M. et al. (1999), Anal. Biochem., 269:94-104.
(§2) In general, the results are expressed as a percent of control specific binding:
(§3) [formula] and as a percent inhibition of control specific binding: […]
(§4) The IC50 values (concentration causing a half-maximal inhibition of control specific binding) and Hill coefficients (nH) are determined by non-linear regression analysis of the competition curves generated with mean replicate values using Hill equation curve fitting:
(§5) [formula] where Y=specific binding, A=left asymptote of the curve, D=right asymptote of the curve, C=compound concentration, C50=IC50, and nH=slope factor. This analysis was performed using in-house software and validated by comparison with data generated by the commercial software SigmaPlot® 4.0 for Windows® (© 1997 by SPSS Inc.). The inhibition constants (Ki) were calculated using the Cheng Prusoff equation:
(§6) [formula] where L=concentration of radioligand in the assay, and KD=affinity of the radioligand for the receptor. A Scatchard plot is used to determine the KD.

In test [3] the target is D1 (Homo sapiens, UniProt P21728). In words: Receptor binding D1. To be noted: read-out: Ki (nM) or maximum inhibition. The protocol: as §1, §2, §3, §4, §5, §6
Chain of D1 (P21728 whole entry): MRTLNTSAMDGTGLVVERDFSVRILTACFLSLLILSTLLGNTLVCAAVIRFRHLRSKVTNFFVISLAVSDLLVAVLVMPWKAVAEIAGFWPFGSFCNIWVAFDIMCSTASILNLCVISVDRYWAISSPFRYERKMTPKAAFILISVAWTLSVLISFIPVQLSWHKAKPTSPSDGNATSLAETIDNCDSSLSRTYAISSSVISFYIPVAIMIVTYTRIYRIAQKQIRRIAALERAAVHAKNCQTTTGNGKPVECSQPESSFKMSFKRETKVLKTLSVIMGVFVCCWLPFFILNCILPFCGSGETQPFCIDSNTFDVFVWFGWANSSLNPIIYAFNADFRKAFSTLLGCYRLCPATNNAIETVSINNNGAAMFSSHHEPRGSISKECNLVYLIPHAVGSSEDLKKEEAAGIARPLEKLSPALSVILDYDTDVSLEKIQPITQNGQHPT
The target in test [4] is 5-HT2A (Homo sapiens, UniProt P28223). As to the kind of experiment: Receptor binding 5-HT2A. As to conditions: read-out: Ki (nM) or maximum inhibition. The protocol: as §1, §2, §3, §4, §5, §6
Chain of 5-HT2A (P28223 whole entry): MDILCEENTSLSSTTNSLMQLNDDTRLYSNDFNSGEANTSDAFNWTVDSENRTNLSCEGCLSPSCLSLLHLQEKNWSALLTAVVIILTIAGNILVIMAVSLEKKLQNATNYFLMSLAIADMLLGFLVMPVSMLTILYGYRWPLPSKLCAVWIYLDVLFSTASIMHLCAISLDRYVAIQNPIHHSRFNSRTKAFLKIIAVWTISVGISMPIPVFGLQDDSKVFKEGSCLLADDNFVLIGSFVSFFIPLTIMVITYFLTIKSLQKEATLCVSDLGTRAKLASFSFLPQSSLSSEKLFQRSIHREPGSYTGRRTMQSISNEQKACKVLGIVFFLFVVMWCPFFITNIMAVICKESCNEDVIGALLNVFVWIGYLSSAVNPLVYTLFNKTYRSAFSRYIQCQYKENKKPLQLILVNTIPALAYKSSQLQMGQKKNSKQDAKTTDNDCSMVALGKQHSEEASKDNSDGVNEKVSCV
In test [5] the target is Mu opiate receptor (Homo sapiens, UniProt P35372). As to the kind of experiment: Receptor binding Mu opiate receptor. As to conditions: read-out: Ki (nM) or maximum inhibition. On the procedure: as §1
Chain of Mu opiate receptor (P35372 whole entry): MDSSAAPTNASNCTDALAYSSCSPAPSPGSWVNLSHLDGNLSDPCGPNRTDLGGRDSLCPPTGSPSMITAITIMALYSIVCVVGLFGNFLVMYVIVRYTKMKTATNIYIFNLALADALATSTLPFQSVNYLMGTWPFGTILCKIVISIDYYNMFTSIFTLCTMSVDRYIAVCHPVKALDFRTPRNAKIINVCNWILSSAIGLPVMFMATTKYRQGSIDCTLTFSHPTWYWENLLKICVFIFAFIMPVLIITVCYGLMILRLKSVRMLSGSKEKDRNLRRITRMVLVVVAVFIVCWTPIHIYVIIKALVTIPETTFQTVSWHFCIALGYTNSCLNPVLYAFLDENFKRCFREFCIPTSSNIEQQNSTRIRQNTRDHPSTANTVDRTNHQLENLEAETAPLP
Mu opiate receptor: Wang, J. B. et al. (1994), FEBS Lett., 338:217-222.
as §2, §3, §4, §5, §6

T1 sequence (P35372 whole entry): as above
Chain of SERT (P31645 whole entry, species assumed): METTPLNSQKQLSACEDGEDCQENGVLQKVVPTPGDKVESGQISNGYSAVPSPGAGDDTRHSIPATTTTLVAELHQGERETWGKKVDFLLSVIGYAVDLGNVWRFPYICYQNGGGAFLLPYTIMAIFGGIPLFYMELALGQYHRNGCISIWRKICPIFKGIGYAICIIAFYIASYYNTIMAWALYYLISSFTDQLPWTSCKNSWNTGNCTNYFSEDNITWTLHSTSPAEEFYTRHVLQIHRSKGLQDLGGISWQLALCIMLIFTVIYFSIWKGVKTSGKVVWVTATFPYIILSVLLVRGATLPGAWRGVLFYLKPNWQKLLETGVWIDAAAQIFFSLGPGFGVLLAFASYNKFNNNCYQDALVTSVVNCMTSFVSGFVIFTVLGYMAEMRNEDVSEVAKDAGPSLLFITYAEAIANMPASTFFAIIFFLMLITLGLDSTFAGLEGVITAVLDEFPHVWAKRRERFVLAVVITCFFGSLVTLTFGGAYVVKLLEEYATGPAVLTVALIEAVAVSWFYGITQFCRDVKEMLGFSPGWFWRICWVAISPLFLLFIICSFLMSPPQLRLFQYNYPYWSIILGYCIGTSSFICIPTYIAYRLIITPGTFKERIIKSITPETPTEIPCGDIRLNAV

As a reminder, the IC50 is the concentration that gives 50% inhibition. One may read the inhibition as how much of the control response was suppressed. The Ki is the equilibrium dissociation constant of an inhibitor or competing ligand from its target. `O=C1CN2c3c(cccc3[C@@H]3CN(CCCC(=O)c4ccncc4)CC[C@@H]32)N1` [Formula II-C] had an IC50 in test [1] (unit inferred, highest concentration tested) above 10000 nM. The inhibition at 1 µM in test [2] was 40%. Also, the Ki was 470 nM in test [3], 37 nM in test [4] and 400 nM in test [5].
The Kb is the affinity of an antagonist, worked out from how it opposes an agonist. For the compound `CN1C(=O)CN2c3c(cccc31)[C@@H]1CN(CCCC(=O)c3ccncc3)CC[C@@H]12` [Formula II-B], in test [1] (human recombinant CHO cells, DAMGO (20 nM) stimulus, cAMP), the IC50 was determined as 1300 nM. Besides, the Kb in test [1] (modified Cheng Prusoff equation, DAMGO (20 nM), read-out: μ(MOP) (h) (antagonist effect) KB (apparent dissociation constant)) worked out at 140 nM.
